Data: PMC3418399 (Molecular microbiology, 2012)
Starred links: 1 amine or outer side, 2 acyl side, 3 side chain; linkers in the order of their positions; H or OH if unused. Positions of bridges follow the written chain, without caps; N, C: chain ends. Non-standard residues stand in square brackets, D forms with d. Residues, ends and D or L forms follow the SMILES beside them. *: point of attachment. hTyr(3S-OH,4S-OH,3'-OSO3H) = N[C@H](C(=O)O)[C@H](O)[C@@H](O)c1ccc(O)c(OS(=O)(=O)O)c1; Orn(4R-OH,5R-OH) = O=C([C@H](C[C@@H](O)[C@@H](O)N[*:3])N[*:1])[*:2]; Pro(3S-OH,4S-Me) = C[C@H]1CN[C@H](C(=O)O)[C@H]1O; X1 = CCCCCOc1ccc(-c2cc(-c3ccc(C(=O)*)cc3)no2)cc1; Gln(3R-OH) = NC(=O)C[C@@H](O)[C@H](N)C(=O)O; Hyp = O=C(O)[C@@H]1C[C@@H](O)CN1

Columns and labels:
EL1/TM2 (CaCdr1p G547R) = test: MIC, liquid microdilution; type: cell-based, Saccharomyces cerevisiae; conditions: 48 h
EL4-1 (CaCdr1p Q1226K) = test: MIC, liquid microdilution; type: cell-based, Saccharomyces cerevisiae; conditions: 48 h
EL6 (CaCdr1p Q1445R) = test: MIC, liquid microdilution; type: cell-based, Saccharomyces cerevisiae; conditions: 48 h
EL3 (CaCdr1p Q714K) = test: MIC, liquid microdilution; type: cell-based, Saccharomyces cerevisiae; conditions: 48 h
[1] = test system: AD/CDR1 (Wild type CaCdr1p); test: MIC, liquid microdilution; type: cell-based, Saccharomyces cerevisiae; conditions: 48 h
AD/pABC3 (Control) = test: MIC, liquid microdilution; type: cell-based, Saccharomyces cerevisiae; conditions: 48 h
TM5 (CaCdr1p V674F) = test: MIC, liquid microdilution; type: cell-based, Saccharomyces cerevisiae; conditions: 48 h
EL4-2 (CaCdr1p Q1226R) = test: MIC, liquid microdilution; type: cell-based, Saccharomyces cerevisiae; conditions: 48 h
[2] = test system: AD/CDR1 (Wild type CaCdr1p; AD/CaCDR1B); test: Agarose diffusion FLC chemosensitization assay; type: cell-based, Saccharomyces cerevisiae; conditions: ~6 nmole/disk, agarose diffusion, FLC 40 μg ml^−1
Cdr1p ATPase = Cdr1p ATPase (Candida albicans, UniProt P43071); test: CaCdr1p ATPase inhibition assay; type: biochemical; conditions: read-out: IC50 Cdr1p ATPase; wild type CaCdr1p, oligomycin-sensitive ATPase, pH 7.5
Sequence of Cdr1p ATPase (P43071 whole entry): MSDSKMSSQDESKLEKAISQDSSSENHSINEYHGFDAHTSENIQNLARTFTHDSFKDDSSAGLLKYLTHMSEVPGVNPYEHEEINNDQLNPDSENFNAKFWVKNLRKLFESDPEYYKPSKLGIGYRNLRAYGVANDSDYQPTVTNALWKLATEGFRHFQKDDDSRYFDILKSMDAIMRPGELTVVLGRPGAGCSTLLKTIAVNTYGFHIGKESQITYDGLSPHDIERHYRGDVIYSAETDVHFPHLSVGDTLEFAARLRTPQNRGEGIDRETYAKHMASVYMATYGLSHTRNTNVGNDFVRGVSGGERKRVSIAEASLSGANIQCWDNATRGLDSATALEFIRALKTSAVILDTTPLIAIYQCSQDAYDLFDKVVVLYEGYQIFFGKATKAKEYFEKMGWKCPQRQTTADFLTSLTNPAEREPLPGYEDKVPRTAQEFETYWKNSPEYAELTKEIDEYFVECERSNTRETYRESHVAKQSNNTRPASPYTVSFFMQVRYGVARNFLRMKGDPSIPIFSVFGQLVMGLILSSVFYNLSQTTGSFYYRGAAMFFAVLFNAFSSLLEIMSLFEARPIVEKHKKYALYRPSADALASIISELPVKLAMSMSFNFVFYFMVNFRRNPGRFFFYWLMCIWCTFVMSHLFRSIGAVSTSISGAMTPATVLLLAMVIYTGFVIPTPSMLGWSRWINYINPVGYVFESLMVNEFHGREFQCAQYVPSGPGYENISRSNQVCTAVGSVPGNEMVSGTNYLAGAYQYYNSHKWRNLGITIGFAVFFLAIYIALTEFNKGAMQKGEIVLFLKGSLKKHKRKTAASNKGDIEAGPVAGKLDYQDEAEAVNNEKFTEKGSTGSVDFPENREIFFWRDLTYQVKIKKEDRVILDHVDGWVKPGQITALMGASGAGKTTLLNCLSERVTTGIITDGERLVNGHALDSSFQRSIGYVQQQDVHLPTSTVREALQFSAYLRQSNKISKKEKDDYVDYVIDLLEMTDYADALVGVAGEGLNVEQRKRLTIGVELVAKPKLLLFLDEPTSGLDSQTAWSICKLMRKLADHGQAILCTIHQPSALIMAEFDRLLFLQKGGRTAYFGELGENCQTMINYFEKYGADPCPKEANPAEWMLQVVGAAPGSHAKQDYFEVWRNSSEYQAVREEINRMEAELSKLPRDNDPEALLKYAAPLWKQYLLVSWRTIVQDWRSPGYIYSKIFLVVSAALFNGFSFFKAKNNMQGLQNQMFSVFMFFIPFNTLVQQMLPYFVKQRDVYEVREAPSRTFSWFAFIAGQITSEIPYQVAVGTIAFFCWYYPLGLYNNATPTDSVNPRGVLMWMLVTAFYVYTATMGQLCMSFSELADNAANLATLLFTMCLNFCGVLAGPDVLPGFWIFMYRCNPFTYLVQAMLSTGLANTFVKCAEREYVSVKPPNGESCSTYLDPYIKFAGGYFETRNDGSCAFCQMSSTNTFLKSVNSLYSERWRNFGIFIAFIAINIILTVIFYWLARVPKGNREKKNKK

[3] = EL1/TM2, G547R, milbemycins and micafungin, I95, CSM pH 7.0, 30°C
[4] = EL4-1, Q1226K, milbemycins and micafungin, I95, CSM pH 7.0, 30°C
[5] = EL6, Q1445R, milbemycins and micafungin, I95, CSM pH 7.0, 30°C
[6] = EL3, Q714K, milbemycins and micafungin, I95, CSM pH 7.0, 30°C
[7] = AD/CDR1, Wild type, milbemycins and micafungin, I95, CSM pH 7.0, 30°C
[8] = AD/pABC3, Control, milbemycins and micafungin, I95, CSM pH 7.0, 30°C
[9] = TM5, V674F, milbemycins and micafungin, I95, CSM pH 7.0, 30°C
[10] = EL4-2, Q1226R, milbemycins and micafungin, I95, CSM pH 7.0, 30°C

Compound | MIC (EL1/TM2 (CaCdr1p G547R); Saccharomyces cerevisiae, pH 7) | MIC (EL4-1 (CaCdr1p Q1226K); Saccharomyces cerevisiae, pH 7) | MIC (EL6 (CaCdr1p Q1445R); Saccharomyces cerevisiae, pH 7) | MIC (EL3 (CaCdr1p Q714K); Saccharomyces cerevisiae, pH 7) | MIC ([1]; Saccharomyces cerevisiae, pH 7) | MIC (AD/pABC3 (Control); Saccharomyces cerevisiae, pH 7) | MIC (TM5 (CaCdr1p V674F); Saccharomyces cerevisiae, pH 7) | MIC (EL4-2 (CaCdr1p Q1226R); Saccharomyces cerevisiae, pH 7) | MIC (EL1/TM2 (CaCdr1p G547R); [3]) [µg/mL] | MIC (EL4-1 (CaCdr1p Q1226K); [4]) [µg/mL] | MIC (EL6 (CaCdr1p Q1445R); [5]) [µg/mL] | MIC (EL3 (CaCdr1p Q714K); [6]) [µg/mL] | MIC [1, 7] [µg/mL] | MIC (AD/pABC3 (Control); [8]) [µg/mL] | MIC (TM5 (CaCdr1p V674F); [9]) [µg/mL] | MIC (EL4-2 (CaCdr1p Q1226R); [10]) [µg/mL] | further results
C[C@@H]1C[C@@H]([C@H](O)CC2CC(=O)NC(=O)C2)C(=O)[C@@H](C)C1 [Cycloheximide] | 0.5 µg/mL | 0.5 µg/mL | 2 µg/mL | 1 µg/mL | 1 µg/mL | 0.008 µg/mL | 1 µg/mL | 1 µg/mL |  |  |  |  |  |  |  |  | 
C=CC[C@@H]1/C=C(\C)C[C@H](C)C[C@H](OC)[C@H]2O[C@@](O)(C(=O)C(=O)N3CCCC[C@H]3C(=O)O[C@H](/C(C)=C/[C@@H]3CC[C@@H](O)[C@H](OC)C3)[C@H](C)[C@@H](O)CC1=O)[C@H](C)C[C@@H]2OC [FK506] | 40 µg/mL | 40 µg/mL | 40 µg/mL | 40 µg/mL | 40 µg/mL | 0.313 µg/mL | 40 µg/mL | 40 µg/mL |  |  |  |  |  |  |  |  | 
OC(Cn1cncn1)(Cn1cncn1)c1ccc(F)cc1F [Fluconazole] | 100 µg/mL | 80 µg/mL | 240 µg/mL | 240 µg/mL | 240 µg/mL | 0.5 µg/mL | 160 µg/mL | 240 µg/mL |  |  |  |  |  |  |  |  | 
CC(=O)N1CCN(c2ccc(OCC3COC(Cn4ccnc4)(c4ccc(Cl)cc4Cl)O3)cc2)CC1 (centres unmarked) [Ketoconazole] | 1 µg/mL | 1 µg/mL | 4 µg/mL | 4 µg/mL | 4 µg/mL | 0.156 µg/mL | 3 µg/mL | 4 µg/mL |  |  |  |  |  |  |  |  | 
CCCCCOc1ccc(-c2cc(-c3ccc(C(=O)N[C@H]4C[C@@H](O)[C@@H](O)NC(=O)[C@@H]5[C@@H](O)[C@@H](C)CN5C(=O)[C@H]([C@H](O)CC(N)=O)NC(=O)[C@H]([C@H](O)[C@@H](O)c5ccc(O)c(OS(=O)(=O)O)c5)NC(=O)[C@@H]5C[C@@H](O)CN5C(=O)[C@H]([C@@H](C)O)NC4=O)cc3)no2)cc1 [Micafungin] (X1-[Orn(4R-OH,5R-OH)]T[Hyp][hTyr(3S-OH,4S-OH,3'-OSO3H)][Gln(3R-OH)][Pro(3S-OH,4S-Me)]; lactam 1-C) | 0.125 µg/mL | 0.125 µg/mL |  |  | 0.125 µg/mL | 0.25 µg/mL | 0.125 µg/mL | 0.125 µg/mL |  |  |  |  |  |  |  |  | 
Clc1ccc(COC(Cn2ccnc2)c2ccc(Cl)cc2Cl)c(Cl)c1 (centres unmarked) [Miconazole] | 1 µg/mL | 1 µg/mL | 3 µg/mL | 2.5 µg/mL | 2.5 µg/mL | 0.156 µg/mL | 2 µg/mL | 3 µg/mL |  |  |  |  |  |  |  |  | 
CC(C)=CC(=O)OCC1=C[C@H]2C(=O)O[C@H]3C[C@@H](C/C=C(\C)C[C@@H](C)/C=C/C=C4\CO[C@H]([C@@H]1O)[C@@]42O)O[C@@]1(CC[C@H](C)[C@@H](C)O1)C3 [Milbemycin α11] |  |  |  |  |  |  |  |  | 8 | 8 | 4 | 4 | 4 | 4 | >8 | 4 | 
C/C=C(\C)C(=O)OCC1=C[C@H]2C(=O)O[C@H]3C[C@@H](C/C=C(\C)C[C@@H](C)/C=C/C=C4\CO[C@H]([C@@H]1O)[C@@]42O)O[C@@]1(CC[C@H](C)[C@@H](C)O1)C3 [Milbemycin α20] |  |  |  |  |  |  |  |  | >8 | >8 | >8 | >8 | >8 | >8 | >8 | >8 | 
CC1=C[C@H]2C(=O)O[C@H]3C[C@@H](C/C=C(\C)C[C@@H](C)/C=C/C=C(\C)[C@]2(O)[C@H](O)[C@@H]1O)O[C@@]1(CC[C@H](C)[C@@H](C)O1)C3 [Milbemycin β11] |  |  |  |  |  |  |  |  | >8 | >8 | >8 | >8 | >8 | >8 | >8 | >8 | 
CC/N=c1\cc2oc3cc(NCC)c(C)cc3c(-c3ccccc3C(=O)OCC)c-2cc1C [Rhodamine 6G] | 50 µM | 50 µM | 75 µM | 75 µM | 75 µM | 1 µM | 50 µM | 50 µM |  |  |  |  |  |  |  |  | 
COC(=O)c1ccccc1-c1c2ccc(=N)cc-2oc2cc(N)ccc12 [Rhodamine 123] | 150 µM | 150 µM | 200 µM | 200 µM | 300 µM | 8 µM | 150 µM | 200 µM |  |  |  |  |  |  |  |  | 
CN1CCN(CCCN2c3ccccc3Sc3ccc(C(F)(F)F)cc32)CC1 [Trifluoperazine] | 40 µM | 40 µM | 80 µM | 40 µM | 40 µM | 5 µM | 20 µM | 40 µM |  |  |  |  |  |  |  |  | 
C[C@@H](c1ncncc1F)[C@](O)(Cn1cncn1)c1ccc(F)cc1F [Voriconazole] | 2.5 µg/mL | 2.5 µg/mL | 10 µg/mL | 8 µg/mL | 8 µg/mL | 0.156 µg/mL | 4 µg/mL | 6 µg/mL |  |  |  |  |  |  |  |  | 
D-NH2-FFKWQR(Mtr)KK-CONH2 |  |  |  |  |  |  |  |  |  |  |  |  |  |  |  |  | chemosensitization of cells overexpressing CaCdr1p to FLC [2]: chemosensitizing activity
D-NH2-FFKWQRRR-CONH2 |  |  |  |  |  |  |  |  |  |  |  |  |  |  |  |  | IC50 (Cdr1p ATPase): 2000 nM
D-NH2-FFKWQRRR-CONH2 + Mtr [RC21] |  |  |  |  |  |  |  |  |  |  |  |  |  |  |  |  | IC50 (Cdr1p ATPase): 1300 nM
Enniatin |  |  |  |  |  |  |  |  |  |  |  |  |  |  |  |  | MIC (EL1/TM2 (CaCdr1p G547R); EL1/TM2, G547R, cycloheximide, enniatin and FK506, CSM pH 7.0, 30°C): 4 µg/mL; MIC (EL4-1 (CaCdr1p Q1226K); EL4-1, Q1226K, cycloheximide, enniatin and FK506, CSM pH 7.0, 30°C): 4 µg/mL; MIC (EL6 (CaCdr1p Q1445R); EL6, Q1445R, cycloheximide, enniatin and FK506, CSM pH 7.0, 30°C): 4 µg/mL; MIC (EL3 (CaCdr1p Q714K); EL3, Q714K, cycloheximide, enniatin and FK506, CSM pH 7.0, 30°C): 4 µg/mL; MIC ([1]; AD/CDR1, Wild type, cycloheximide, enniatin and FK506, CSM pH 7.0, 30°C): 4 µg/mL; MIC (AD/pABC3 (Control); AD/pABC3, Control, cycloheximide, enniatin and FK506, CSM pH 7.0, 30°C): 4 µg/mL; MIC (TM5 (CaCdr1p V674F); TM5, V674F, cycloheximide, enniatin and FK506, CSM pH 7.0, 30°C): 4 µg/mL; MIC (EL4-2 (CaCdr1p Q1226R); EL4-2, Q1226R, cycloheximide, enniatin and FK506, CSM pH 7.0, 30°C): 4 µg/mL
Milbemycin α25 |  |  |  |  |  |  |  |  | 8 | 8 | >8 | >8 | 8 | 8 | >8 | >8 | 
Milbemycin α26 |  |  |  |  |  |  |  |  | 8 | 8 | 8 | 8 | 8 | 8 | 8 | 8 | 
Milbemycin β9 |  |  |  |  |  |  |  |  | >8 | >8 | >8 | 8 | >8 | 8 | >8 | >8 | 
